Data as given in article PMC12566703, “Design, Synthesis, In Vitro and In Silico Biological Evaluation of New Pyridine-2,5-Dicarboxylates Esters Bearing Natural Source Fragments as Anti-Trypanosomatid Agents” (Pharmaceutics, 2025).
Read-outs that look alike come from different tables or passages of the source.

How the values were obtained:
[1] = tested on: T. cruzi (A1) epimastigotes; assay: In vitro trypanocidal activity, Alamar Blue assay, 48 h; format: cell-based, Trypanosoma cruzi; details: for IC50: 48 h; for Selectivity Index T. cruzi A1: CC50 (J774.2)/IC50
Procedure: (§1) Both strains were maintained in liver infusion tryptose (LIT) medium supplemented with 10% FBS and 0.1% penicillin-streptomycin. They were preserved by transferring 1 × 10^6 parasites/mL into a new culture medium every week. […] The metabolic activity was determined by the Alamar Blue assay. Briefly, after the incubation period, 20 µL of 2.5 mM resazurin solution was added to each well and incubated for 3 h. Three independent experiments were performed in triplicate. The half-maximum inhibitory concentration (IC50) was determined using probit analysis.

[2] = tested on: T. cruzi (NINOA) epimastigotes; assay: as above; format: cell-based, Trypanosoma cruzi; details: for Selectivity Index T. cruzi NINOA: CC50 (J774.2)/IC50; for IC50: 48 h, read-out: T. cruzi IC50 (µM ± SD) NINOA
Procedure: as §1

[3] = tested on: L. mexicana (MHOM/MX/2017/UABJO17FCQEPS) (FCQEPS) promastigotes; assay: In vitro leishmanicidal activity, MTT method, 48 h; format: cell-based, Leishmania mexicana; details: for Selectivity Index L. mexicana FCQEPS: CC50 (J774.2)/IC50; for IC50: Leishmania mexicana, 48 h, read-out: L. mexicana IC50 (µM ± SD) FCQEPS; for IC50 / Leishmanicidal activity class in words, FCQEPS strain: promastigotes, FCQEPS strain; for Leishmanicidal activity class in words, FCQEPS strain: classes by IC50
Procedure: (§2) To determine the leishmanicidal activity of pyridine-2,5-dicarboxylates, the parasites, in their logarithmic growth phase (5 × 10^5 parasites/mL), were cultured in 96-well microliter plates with the corresponding pyridine-2,5-dicarboxylate compound at different concentrations (0.78–100 µM). Compounds were dissolved in DMSO in a final volume of 200 µL for 48 h at 26 °C. Parasites treated with DMSO (0.2%) were used as a negative control, while treatments with Glucantime and Amphotericin B, at the same concentrations, were used as positive controls. The metabolic activity of the cells was determined using the 3-(4,5-Dimethylthiazol-2-yl)-2,5-diphenyltetrazolium bromide (MTT) method. IC50 was determined using probit analysis. Three independent experiments were performed in triplicate, and the data were analyzed for statistical significance (p < 0.05) using Biostat 5.3.0 software.

[4] = tested on: L. mexicana (MNYC/BZ/62/M379) (M379) promastigotes; assay: In vitro leishmanicidal activity, MTT method, 48 h; format: cell-based, Leishmania mexicana; details: for Selectivity Index L. mexicana M379: CC50 (J774.2)/IC50; for IC50: Leishmania mexicana, 48 h, read-out: L. mexicana IC50 (µM ± SD) M379; for IC50 / Leishmanicidal activity class in words, M379 strain: promastigotes, M379 strain; for Leishmanicidal activity class in words, M379 strain: classes by IC50
Procedure: as §2

[5] = Cytotoxicity assay, MTT method, 48 h; format: cell-based, murine; details: mouse, J774.2 macrophage cells, J774.2 cell line, read-out: Macrophage J774.2 CC50 (µM ± SD)
Procedure: A cytotoxicity assay was performed using the murine macrophage J774.2 cell line, which was recloned from the original ascites and solid tumor J774.1 (according to the manufacturer). The cells were cultured in RPMI medium supplemented with 10% SBF, 100 U […] penicillin, 100 µg/mL streptomycin, and glutamine (2 mM), and 5% CO2 atmosphere. The medium was changed every 2–3 days. Macrophages were used at 1 × 10^6 cells and were incubated with compounds at different concentrations (0.75–100 µM, respectively) at 37 °C for 48 h in a 5% CO2 atmosphere. DMSO was used as a negative control (0.2%). The metabolic activity of macrophages was determined by the MTT method. The percentage of cell viability was calculated, and the half-maximal cytotoxic concentration (CC50) was determined using probit analysis. Three independent assays were conducted in triplicate.

[6] = Trypanosoma cruzi, epimastigotes, NINOA strain
[7] = Trypanosoma cruzi, epimastigotes, A1 strain, read-out: T. cruzi IC50 (µM ± SD) A1
[8] = epimastigotes, A1 strain, read-out: T. cruzi IC50 (µM ± SD) A1

| SMILES | IC50 ([1]; Trypanosoma cruzi, read-out: T. cruzi IC50 (µM ± SD) A1, epimastigotes, A1 strain, 48 h) | IC50 ([1]; read-out: T. cruzi IC50 (µM ± SD) A1, epimastigotes, A1 strain) | Selectivity Index T. cruzi A1 [1] | Selectivity Index T. cruzi NINOA [2] | IC50 [2, 6] | IC50 ([2]; epimastigotes, NINOA strain) | Trypanocidal activity class in words, NINOA strain ([2]; epimastigotes, NINOA strain, classes by IC50) | Selectivity Index L. mexicana FCQEPS [3] | IC50 [3] | Leishmanicidal activity class in words, FCQEPS strain [3] | Selectivity Index L. mexicana M379 [4] | IC50 [4] | Leishmanicidal activity class in words, M379 strain [4] | CC50 at 48 h [5] | IC50 [1, 7] | IC50 [1, 8] | Trypanocidal activity class in words, A1 strain ([1]; epimastigotes, A1 strain, classes by IC50) |
| --- | --- | --- | --- | --- | --- | --- | --- | --- | --- | --- | --- | --- | --- | --- | --- | --- | --- |
| O=C(Cn1ccnc1[N+](=O)[O-])NCc1ccccc1 [Bzn, Benznidazole, reference compound] | < 39 µM | 39.08 ± 0.07 µM |  |  |  |  |  |  |  |  |  |  |  |  |  |  |  |
| CCOC(=O)c1cc(-c2ccccc2)c(C(=O)OCC)nc1C [Compound 3a, Diethyl 6-methyl-3-phenylpyridine-2,5-dicarboxylate] |  |  | >7.5 | >3.6 | ≤ 56.7 µM | 54.5 ± 2.36 µM | moderate activity | >1 | > 200 µM | did not have leishmanicidal activity | >1 | > 200 µM | did not have antiparasitic activity | > 200 µM |  |  |  |
| CCOC(=O)c1cc(-c2ccc(C)cc2)c(C(=O)OCC)nc1C [Compound 3b] |  |  | >1.9 | >3.3 | 59.3 µM | 59.4 ± 1.45 µM |  | >1 | > 200 µM |  | >1 | > 200 µM | did not have antiparasitic activity | > 200 µM | 106 ± 1.16 µM |  |  |
| CCOC(=O)c1cc(-c2ccc(F)cc2)c(C(=O)OCC)nc1C [Compound 3c] |  |  | >2.2 | >1.9 | 100 ± 1.86 µM |  |  | >1.7 | 118 ± 2.08 µM |  | >1 | > 200 µM | inactive | > 200 µM | 91.7 ± 1.72 µM |  |  |
| CCOC(=O)c1nc(C)c(C(=O)OCc2ccccc2)cc1-c1ccccc1 [Compound 4a, 5-Benzyl 2-ethyl 6-methyl-3-phenylpyridine-2,5-dicarboxylate] |  |  | >7.0 | >4.7 | ≤ 56.7 µM | 42.4 ± 1.88 µM |  | >1 | > 200 µM | did not have leishmanicidal activity | >1 | > 200 µM | did not have antiparasitic activity | > 200 µM | ≤ 56.7 µM | 28.5 ± 1.5 µM |  |
| CCOC(=O)c1nc(C)c(C(=O)OCc2ccccc2)cc1-c1ccc(C)cc1 [Compound 4b, 5-Benzyl 2-ethyl 6-methyl-3-(p-tolyl)pyridine-2,5-dicarboxylate] |  |  | >3.8 | >7.5 |  |  |  | >1 | > 200 µM |  | >1 | > 200 µM | did not have antiparasitic activity | > 200 µM | ≤ 56.7 µM | 52.6 ± 1.87 µM |  |
| CCOC(=O)c1nc(C)c(C(=O)OCc2ccccc2)cc1-c1ccc(F)cc1 [Compound 4c] |  |  | >1 | >1 | > 200 µM |  |  | >1 | > 200 µM |  | >1 | > 200 µM | inactive | > 200 µM | > 200 µM |  |  |
| CCOC(=O)c1nc(C)c(C(=O)OCc2ccc(C)cc2)cc1-c1ccccc1 [Compound 5a, 2-Ethyl 5-(4-methylbenzyl) 6-methyl-3-phenylpyridine-2,5-dicarboxylate] |  |  | >9.3 | >3.5 | ≤ 56.7 µM | 56.6 ± 1.26 µM |  | >2.1 | 95 ± 1.36 µM |  | >1 | > 200 µM | did not have antiparasitic activity | > 200 µM |  |  |  |
| CCOC(=O)c1nc(C)c(C(=O)OCc2ccc(C)cc2)cc1-c1ccc(C)cc1 [Compound 5b] |  |  | >1 | >1 | > 200 µM |  |  | >1 | > 200 µM |  | >1 | > 200 µM | did not have antiparasitic activity | > 200 µM | > 200 µM |  | completely lose their trypanocidal activity |
| CCOC(=O)c1nc(C)c(C(=O)OCc2ccc(C)cc2)cc1-c1ccc(F)cc1 [Compound 5c] |  |  | >9.6 | >1 | > 200 µM |  |  | >1 | > 200 µM | abolished their leishmanicidal activity | >1 | > 200 µM | inactive | > 200 µM | 20.8 ± 0.1 µM |  |  |
| CCOC(=O)c1nc(C)c(C(=O)OCc2ccc3c(c2)OCO3)cc1-c1ccccc1 [Compound 6a, 5-(Benzo[d][1,3]dioxol-5-ylmethyl) 2-ethyl 6-methyl-3-phenylpyridine-2,5-dicarboxylate] |  |  | >1 | >7.3 | < 28 µM | 27.2 ± 0.84 µM |  | >1 | > 200 µM | did not have leishmanicidal activity | >1 | > 200 µM | did not have antiparasitic activity | > 200 µM | > 200 µM |  |  |
| CC1CS(=O)(=O)CCN1/N=C/c1ccc([N+](=O)[O-])o1 (stereo not drawn) [Nfx, Nifurtimox, reference compound] |  |  |  |  | 7.09 ± 0.12 µM |  |  |  |  |  |  |  |  |  | 19.3 ± 0.08 µM |  |  |
